# Results published in patent publication US20200113902A1, “COMPOSITIONS AND METHODS FOR TREATING CANCERS WITH COVALENT INHIBITORS OF CYCLIN-DEPENDENT KINASE 7 (CDK7)” (Syros Pharmaceuticals, Inc., priority 2017, published 2020).
# Tests used:
# HCC70 xenografts = assay: Subcutaneous HCC70 xenograft, tumor volume; assay type: in vivo, mouse; conditions: 40 mg/kg i.v. twice weekly (BIW), vehicle: increase in tumor volume
# Experimental: Subcutaneous HCC70 xenografts were established in BALC/c nude mice at ChemPartner (Shanghai, China). Each mouse was inoculated subcutaneously in the right flank with 5×10^6 HCC70 cells (ATCC, CAT #: CRL-2315) in 0.2 ml of a 1:1 mixture of base medium and Matrigel. Tumor sizes were measured in two dimensions using a caliper, and the volumes were expressed in mm^3 using the formula: V=0.5 a×b^2 where a and b are the longest and shortest diameters of the tumor, respectively. Compound 1 treatment was started when the average tumor size reached 181 mm^3.
# Compound 1 was formulated in w/v 20% Captisol (pH 4-6) and administered by i.v. twice weekly (BIW) at a final dose of 40 mg/kg in a 10 ml/kg volume. Mice in the vehicle arm were given the same dosing schedules, volumes, and formulations, but lacking Compound 1. Tumor volumes were measured twice weekly over the course of the study.
# [1] = test system: MCL1 protein in HCC70 xenograft tumor; assay: HCC70 xenograft tumor, Western blot; assay type: in vivo; conditions: HCC70 xenograft mouse; single dose of 40 mg/kg
# Experimental: Cytotoxic cancer cell lines HCC70 and TOV21G, and cytostatic cancer cell lines T47D and COV318 were seeded in wells of a six-well dish at a density of 1×10^6 cells/well and allowed to adhere overnight. Cells were then treated with 50 nM of Compound 1 for 16 or 24 hours, or with DMSO (0 hours) representing a negative control. Cells were harvested and placed on ice, and resuspended in RIPA lysis buffer supplemented with protease and phosphatase inhibitors. Clarified lysates prepared with 4×LSD running buffer and boiled at 95° C. for 5 minutes. Equivalent amounts of sample (10 μg total protein) were run on a 4-12% Bis-Tris gel and transferred to a PDVF membrane for Western blotting using standard Western blotting protocols. Membranes were blocked with Licor TBS blocking buffer then probed with antibodies for BCL-XL, BCL-2, MCL1, BID, and GAPDH visualized using and Odyssey imager (FIGS. 23A and 23D).
# Subcutaneous HCC70 xenografts were established in BALC/c nude mice at ChemPartner (Shanghai, China). Each mouse was inoculated subcutaneously in the right flank with 5×10^6 HCC70 cells (ATCC, CAT #: CRL-2315) in 0.2 ml of a 1:1 mixture of base medium and Matrigel. Tumor sizes were measured in two dimensions using a caliper, and the volumes were expressed in mm^3 using the formula: V=0.5 a×b^2 where a and b are the longest and shortest diameters of the tumor, respectively. […]
# BR5013 xenografts = assay: TNBC patient-derived xenograft BR5013, tumor volume; assay type: in vivo, mouse; conditions: 40 mg/kg or 30 mg/kg i.v. BIW
# Experimental: (§1) Patient-derived xenograft (PDX) models from TNBC patients (BR5010, BR5013, BR5015, and BR5023) were established in NOD-SCID mice at Crown Bioscience (San Diego, USA). Cryo vials containing tumor cells were thawed and prepared for injection into mice. Cells were washed in PBS, counted, and resuspended in cold PBS at a concentration of 50,000-100,000 viable cells/100 ul. Cell suspensions were mixed with an equal volume of Cultrex ECM and kept on ice during transport to the vivarium. Cells were prepared for injections by withdrawing ECM-Cell mixture into a chilled slip-tip syringe fitted with a 26G 7/8 (0.5 mm×22 mm) needle. The filled syringes were kept on ice to avoid the solidification of ECM. Each mouse was inoculated subcutaneously in the right flank with 200 uL of the cell suspension. Tumor sizes were measured in two dimensions using a caliper, and the volumes were expressed in mm^3 using the formula: V=0.5 a×b^2, where a and b are the longest and shortest diameters of the tumor, respectively. Compound 1 treatment was started when the average tumor size reached 150-200 mm^3.
# (§2) Compound 1 was formulated in w/v 20% Captisol (pH 4-6) and administered by i.v. twice weekly (BIW) at a final dose of 40 mg/kg or 30 mg/kg in a 10 ml/kg volume. Tumor volumes were measured twice weekly over the course of the study. […]
# [2] = test system: ovarian carcinoma PDX models (OV5387, OV14702, OV14972, OV15398, OV15576, OV15696, OV15612, OV15631); assay: Ovarian carcinoma patient-derived xenografts (eight models), tumor volume; assay type: in vivo, mouse; conditions: 40 mg/kg or 30 mg/kg i.v. BIW; four did not respond
# Experimental: as §1, with “from ovarian carcinoma” for “from TNBC”, “patients (OV5387, OV14702, OV14972, OV15398, OV15576, OV15696, OV15612, OV15631)” for “patients (BR5010, BR5013, BR5015, and BR5023)”, “in mm3” for “in mm^3”, “V=0.5 a×b^2” for “V=0.5 a×b^2,”
# as §2
# OV15398 xenograft = assay: Ovarian PDX OV15398, tumor volume; assay type: in vivo, mouse; conditions: OV15398 (very low CDKN2A); 40 or 30 mg/kg i.v. BIW
# Experimental: as §1, with “from ovarian carcinoma” for “from TNBC”, “patients (OV5387, OV14702, OV14972, OV15398, OV15576, OV15696, OV15612, OV15631)” for “patients (BR5010, BR5013, BR5015, and BR5023)”, “in mm3” for “in mm^3”, “V=0.5 a×b^2” for “V=0.5 a×b^2,”
# as §2
# [3] = test system: homologous recombination deficiency / carboplatin sensitivity genes in COV318 cells; assay: Nanostring PanCancer Pathways mRNA, COV318; assay type: cell-based; conditions: 50 nM, 16 hours
# Experimental: Ovarian Cell lines OvCar3, TOV21G, A2780 and COV318 were plated at 500,000 cells/well in a 6-well plate the day before treatment. The next day the cells were treated with vehicle or 50 nM Compound 1 for 0, 6, or 16 hours after which cells were harvested and total RNA collected using RNeasy mini kit (Qiagen). Changes in mRNA between samples were analyzed with Nanostring™ PanCancer Pathways Panels specifically analyzing genes related to homologous recombination deficiency and carboplatin sensitivity (ie. BRCA1, BRCA2, Rad51, ATM, ATR, MSH2, MSH6). Nanostring signal intensities were first normalized to housekeeping genes across all cell lines, and then normalized to the 0 hour timepoint within a cell line.
structure (smiles),measurement,setting,value
"CN(C)C/C=C/C(=O)Nc1ccc(C(=O)N[C@@]2(C)CCC[C@@H](Nc3ncc(Cl)c(-c4c[nH]c5ccccc45)n3)C2)nc1 [Compound 1, N-((1S,3R)-3-(5-chloro-4-(1H-indol-3-yl)pyrimidin-2-ylamino)-1-methylcyclohexyl)-5-((E)-4-(dimethylamino)but-2-enamido)picolinamide]",Tumor volume,HCC70 xenografts,reduction in tumor volume
same,MCL1 protein expression in tumor (Western blot),[1],reduced MCL1 protein expression
same,Tumor growth vs untreated historical samples,BR5013 xenografts,little inhibitory effect on tumor growth
same,Response to treatment across eight ovarian PDX models (tumor growth vs historical untreated),[2],four of the xenografts responded to treatment
same,Response to treatment (tumor growth),OV15398 xenograft,responded
same,"mRNA of genes related to homologous recombination deficiency and carboplatin sensitivity, all genes except Rad51 (BRCA1, BRCA2, ATM, ATR, MSH2, MSH6)",[3],downregulated
